Measurements: patent US20260250318A1, “COMPOSITIONS AND METHODS FOR CROSSING THE BLOOD BRAIN BARRIER” (VOYAGER THERAPEUTICS, INC., priority 2022, published 2026)

Tests used:
[1] = tested on: brain; assay: Matured TTM-001 and TTM-002 variants, NGS enrichment in mouse brain; format: in vivo, mice; settings: relative to AAV9 control
[2] = tested on: brains, heart, liver, muscle, and DRG of the NHPs; assay: Maturation of TTM-001 and TTM-002 capsids, NGS enrichment in NHP tissues; format: in vivo; settings: relative to AAV9 control
Method in brief: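 Variants carry mutations within and flanking the loop IV peptide insert: positions 450–466 were triplet-randomized, while positions 449–466 received low-frequency point mutations. The combined pool went into two NHPs, and each peptide was scored by NGS enrichment ratio against AAV9.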

[3] = NGS fold-enrichment, brain of mice
[4] = NGS fold-enrichment, DRG of NHPs
[5] = NGS fold-enrichment, RNA, brain of NHPs
[6] = NGS fold-enrichment, heart of NHPs
[7] = NGS fold-enrichment, liver DNA of NHPs
[8] = NGS fold-enrichment, liver RNA of NHPs
[9] = NGS fold-enrichment, muscle of NHPs
[10] = NGS fold-enrichment of matured AAV capsid variants, NHP brain, RNA
[11] = NGS fold-enrichment, mouse brain
[12] = NGS fold-enrichment of RNA, NHP brain
[13] = NGS fold-enrichment, NHP liver DNA
[14] = NGS fold-enrichment, NHP liver RNA
[15] = NGS fold-enrichment, NHP muscle

| Sequence | Fold Enrichment relative to AAV9, Brain (Mouse) [1, 11] [fold] | Fold Enrichment relative to AAV9, Brain (NHP) [2, 12] [fold] | Fold Enrichment relative to AAV9, DRG (NHP) ([2]; NGS fold-enrichment, NHP DRG) [fold] | Fold Enrichment relative to AAV9, Heart (NHP) ([2]; NGS fold-enrichment, NHP heart) [fold] | Fold Enrichment relative to AAV9, Liver DNA (NHP) [2, 13] [fold] | Fold Enrichment relative to AAV9, Liver RNA (NHP) [2, 14] [fold] | Fold Enrichment relative to AAV9, Muscle (NHP) [2, 15] [fold] | also measured |
| --- | --- | --- | --- | --- | --- | --- | --- | --- |
| KTVNGGGSPHSKAQSQQT | – | – | – | – | – | – | – | Fold Enrichment relative to AAV9, Brain (Mouse) [1, 3]: 160.711 fold; Fold Enrichment relative to AAV9, DRG (NHP) [2, 4]: 0.000 fold; Fold Enrichment relative to AAV9, Brain (NHP) [2, 5]: 67.634 fold; Fold Enrichment relative to AAV9, Heart (NHP) [2, 6]: 0.055 fold; Fold Enrichment relative to AAV9, Liver DNA (NHP) [2, 7]: 0.210 fold; Fold Enrichment relative to AAV9, Liver RNA (NHP) [2, 8]: 0.000 fold; Fold Enrichment relative to AAV9, Muscle (NHP) [2, 9]: 0.000 fold |
| KTVNGGGSPHSKSQNQQT | – | – | – | – | – | – | – | Fold Enrichment relative to AAV9, Brain (Mouse) ([1]; mouse brain): 170.548 fold; Fold Enrichment relative to AAV9, Brain (NHP) [2, 10]: 56.114 fold; Fold Enrichment relative to AAV9, DRG (NHP) ([2]; NHP DRG): 0.116 fold; Fold Enrichment relative to AAV9, Heart (NHP) ([2]; NHP heart): 0.000 fold; Fold Enrichment relative to AAV9, Liver DNA (NHP) ([2]; NHP liver, DNA): 0.040 fold; Fold Enrichment relative to AAV9, Liver RNA (NHP) ([2]; NHP liver, RNA): 0.000 fold; Fold Enrichment relative to AAV9, Muscle (NHP) ([2]; NHP muscle): 0.000 fold |
| KTVNGHDSPHKIGHNQQT | 10.167 | 120.985 | 0.000 | 0.029 | 0.009 | 0.000 | 0.000 | – |
| KTVNGHDSPHKSGHTQQT | 6.160 | 82.246 | 0.000 | 0.378 | 0.123 | 0.000 | 1.142 | – |
| KTVNGHDSPHKSGQNHLT | 16.096 | 81.516 | 0.000 | 0.100 | 0.028 | 0.000 | 0.017 | – |
| KTVNGHDSPHKSGQNLHT | 11.363 | 88.080 | 0.000 | 0.080 | 0.039 | 0.000 | 0.000 | – |
| KTVNGHDSPHKSGQNLLT | 18.894 | 83.969 | 0.114 | 0.040 | 0.035 | 0.000 | 0.023 | – |
| KTVNGHDSPHKSGQTRQT | 7.174 | 133.276 | 0.251 | 0.080 | 0.129 | 0.034 | 0.093 | – |
| KTVNGHDSPHKSGRNQET | 11.958 | 102.695 | 0.000 | 0.286 | 0.027 | 0.000 | 0.000 | – |
| KTVNGHDSPHKSLQNQQT | 16.726 | 112.925 | 0.000 | 0.301 | 0.322 | 0.000 | 0.059 | – |
| KTVNGHDSPHKSRQSQQT | 8.136 | 76.458 | 0.000 | 0.063 | 0.021 | 0.000 | 0.000 | – |
| KTVNGNGSPHSKAQNHQT | – | – | – | – | – | – | – | Fold Enrichment relative to AAV9, Brain (Mouse) [1, 3]: 52.482 fold; Fold Enrichment relative to AAV9, DRG (NHP) [2, 4]: 0.000 fold; Fold Enrichment relative to AAV9, Brain (NHP) [2, 5]: 68.889 fold; Fold Enrichment relative to AAV9, Heart (NHP) [2, 6]: 0.000 fold; Fold Enrichment relative to AAV9, Liver DNA (NHP) [2, 7]: 0.030 fold; Fold Enrichment relative to AAV9, Liver RNA (NHP) [2, 8]: 0.000 fold; Fold Enrichment relative to AAV9, Muscle (NHP) [2, 9]: 0.000 fold |
| KTVNGNGSPHSKAQNKQT | 69.455 | 81.481 | 0.000 | 0.000 | 0.122 | 0.000 | 0.000 | Fold Enrichment relative to AAV9, Brain (Mouse) [1, 3]: 69.455 fold; Fold Enrichment relative to AAV9, DRG (NHP) [2, 4]: 0.000 fold; Fold Enrichment relative to AAV9, Brain (NHP) [2, 5]: 81.481 fold; Fold Enrichment relative to AAV9, Heart (NHP) [2, 6]: 0.000 fold; Fold Enrichment relative to AAV9, Liver DNA (NHP) [2, 7]: 0.122 fold; Fold Enrichment relative to AAV9, Liver RNA (NHP) [2, 8]: 0.000 fold; Fold Enrichment relative to AAV9, Muscle (NHP) [2, 9]: 0.000 fold |
| KTVNGNGSPHSKAQNQHT | 54.086 | 78.849 | 0.000 | 0.000 | 0.045 | 0.000 | 0.000 | Fold Enrichment relative to AAV9, Brain (Mouse) [1, 3]: 54.086 fold; Fold Enrichment relative to AAV9, DRG (NHP) [2, 4]: 0.000 fold; Fold Enrichment relative to AAV9, Brain (NHP) [2, 5]: 78.849 fold; Fold Enrichment relative to AAV9, Heart (NHP) [2, 6]: 0.000 fold; Fold Enrichment relative to AAV9, Liver DNA (NHP) [2, 7]: 0.045 fold; Fold Enrichment relative to AAV9, Liver RNA (NHP) [2, 8]: 0.000 fold; Fold Enrichment relative to AAV9, Muscle (NHP) [2, 9]: 0.000 fold |
| KTVNGNGSPHSKSQNQQT | – | – | – | – | – | – | – | Fold Enrichment relative to AAV9, Brain (Mouse) ([1]; mouse brain): 95.384 fold; Fold Enrichment relative to AAV9, Brain (NHP) [2, 10]: 54.586 fold; Fold Enrichment relative to AAV9, DRG (NHP) ([2]; NHP DRG): 0.000 fold; Fold Enrichment relative to AAV9, Heart (NHP) ([2]; NHP heart): 0.000 fold; Fold Enrichment relative to AAV9, Liver DNA (NHP) ([2]; NHP liver, DNA): 0.168 fold; Fold Enrichment relative to AAV9, Liver RNA (NHP) ([2]; NHP liver, RNA): 0.256 fold; Fold Enrichment relative to AAV9, Muscle (NHP) ([2]; NHP muscle): 0.000 fold |
| KTVNGSGSPHSKAPNQHT | 51.008 | 117.207 | 0.000 | 0.109 | 0.074 | 0.000 | 0.000 | Fold Enrichment relative to AAV9, Brain (Mouse) [1, 3]: 51.008 fold; Fold Enrichment relative to AAV9, DRG (NHP) [2, 4]: 0.000 fold; Fold Enrichment relative to AAV9, Brain (NHP) [2, 5]: 117.207 fold; Fold Enrichment relative to AAV9, Heart (NHP) [2, 6]: 0.109 fold; Fold Enrichment relative to AAV9, Liver DNA (NHP) [2, 7]: 0.074 fold; Fold Enrichment relative to AAV9, Liver RNA (NHP) [2, 8]: 0.000 fold; Fold Enrichment relative to AAV9, Muscle (NHP) [2, 9]: 0.000 fold |
| KTVNGSGSPHSKAPNQQT | – | – | – | – | – | – | – | Fold Enrichment relative to AAV9, Brain (Mouse) ([1]; mouse brain): 58.080 fold; Fold Enrichment relative to AAV9, Brain (NHP) [2, 10]: 53.444 fold; Fold Enrichment relative to AAV9, DRG (NHP) ([2]; NHP DRG): 0.833 fold; Fold Enrichment relative to AAV9, Heart (NHP) ([2]; NHP heart): 2.206 fold; Fold Enrichment relative to AAV9, Liver DNA (NHP) ([2]; NHP liver, DNA): 0.178 fold; Fold Enrichment relative to AAV9, Liver RNA (NHP) ([2]; NHP liver, RNA): 0.156 fold; Fold Enrichment relative to AAV9, Muscle (NHP) ([2]; NHP muscle): 0.006 fold |
| KTVNGSGSPHSKAQDKQT | – | – | – | – | – | – | – | Fold Enrichment relative to AAV9, Brain (Mouse) ([1]; mouse brain): 69.225 fold; Fold Enrichment relative to AAV9, Brain (NHP) [2, 10]: 51.580 fold; Fold Enrichment relative to AAV9, DRG (NHP) ([2]; NHP DRG): 0.428 fold; Fold Enrichment relative to AAV9, Heart (NHP) ([2]; NHP heart): 0.000 fold; Fold Enrichment relative to AAV9, Liver DNA (NHP) ([2]; NHP liver, DNA): 0.063 fold; Fold Enrichment relative to AAV9, Liver RNA (NHP) ([2]; NHP liver, RNA): 0.041 fold; Fold Enrichment relative to AAV9, Muscle (NHP) ([2]; NHP muscle): 0.069 fold |
| KTVNGSGSPHSKAQHLQT | – | – | – | – | – | – | – | Fold Enrichment relative to AAV9, Brain (Mouse) ([1]; mouse brain): 62.743 fold; Fold Enrichment relative to AAV9, Brain (NHP) [2, 10]: 55.739 fold; Fold Enrichment relative to AAV9, DRG (NHP) ([2]; NHP DRG): 0.091 fold; Fold Enrichment relative to AAV9, Heart (NHP) ([2]; NHP heart): 0.036 fold; Fold Enrichment relative to AAV9, Liver DNA (NHP) ([2]; NHP liver, DNA): 0.409 fold; Fold Enrichment relative to AAV9, Liver RNA (NHP) ([2]; NHP liver, RNA): 0.062 fold; Fold Enrichment relative to AAV9, Muscle (NHP) ([2]; NHP muscle): 0.000 fold |
| KTVNGSGSPHSKAQLQQT | – | – | – | – | – | – | – | Fold Enrichment relative to AAV9, Brain (Mouse) ([1]; mouse brain): 81.201 fold; Fold Enrichment relative to AAV9, Brain (NHP) [2, 10]: 58.681 fold; Fold Enrichment relative to AAV9, DRG (NHP) ([2]; NHP DRG): 0.315 fold; Fold Enrichment relative to AAV9, Heart (NHP) ([2]; NHP heart): 0.465 fold; Fold Enrichment relative to AAV9, Liver DNA (NHP) ([2]; NHP liver, DNA): 0.333 fold; Fold Enrichment relative to AAV9, Liver RNA (NHP) ([2]; NHP liver, RNA): 0.529 fold; Fold Enrichment relative to AAV9, Muscle (NHP) ([2]; NHP muscle): 0.045 fold |
| KTVNGSGSPHSKAQNHLT | – | – | – | – | – | – | – | Fold Enrichment relative to AAV9, Brain (Mouse) [1, 3]: 70.786 fold; Fold Enrichment relative to AAV9, DRG (NHP) [2, 4]: 0.133 fold; Fold Enrichment relative to AAV9, Brain (NHP) [2, 5]: 59.239 fold; Fold Enrichment relative to AAV9, Heart (NHP) [2, 6]: 0.034 fold; Fold Enrichment relative to AAV9, Liver DNA (NHP) [2, 7]: 0.156 fold; Fold Enrichment relative to AAV9, Liver RNA (NHP) [2, 8]: 0.000 fold; Fold Enrichment relative to AAV9, Muscle (NHP) [2, 9]: 0.000 fold |
